Counter-ions that a name gives are not always drawn. Like-named read-outs stand apart in the source and are kept apart here.
Assays:
[1] = Hygroscopicity by DVS analysis; format: physicochemical; details: 25°C
Description: The hygroscopicity of both crystalline Forms (I) and (II) was measured with DVS analysis by means of a water absorption analyzer (SURFACE MEASUREMENT SYSTEM, Marion, Buckinghamshire, UK) according to the following working conditions: […]

[2] = Solubility in mixtures of water-ethanol at 25°C and 40°C; format: physicochemical
[3] = Bioavailability of crystalline Forms (I) and (II) in dogs; format: in vivo, Beagle dogs; details: for AUC0-t / Cmax / concentration in plasma of lercanidipine (S+R): oral 3 mg/kg
Description: A study was carried out on six Beagle dogs to evaluate the bioavailability of crystalline Forms (I) and (II).
Blood samples were taken at given times and plasma concentrations of lercanidipine were determined with a stereoselective analytical method HPLC-MS/MS, according to the following working conditions;
Lercanidipine was extracted from dog plasma by means of a liquid-liquid extraction with a mixture of n-hexane and ethyl ether. The dry residue of the organic phase was taken up with a mixture of methanol and water and a liquid-phase chromatographic separation (LC) was carried out; the two enantiomers of lercanidipine were separated on a CHIROBIOTIC V column (Vancomycin) (particle size […], column size 150 x 4.6 mm (ASTEC, NJ, USA)) and were detected with a mass spectrometer (MS/MS) by using an electrospray technique.
The analytical method was validated in a concentration range between 0.1 and 20 ng/ml of plasma for both enantiomers. The method has shown to be specific with an accuracy of 15%. The average concentrations of lercanidipine in the tables represent the sum of both enantiomers.

[4] = Relative bioavailability of Form (I) and Form (II) in man; format: in vivo; details: 10 mg tablet
Description: Blood samples were taken at 15 points from time 0 to 24 h post-dosing and plasma concentrations of lercanidipine were determined with a stereoselective analytical method HPLC-MS/MS.

Compound: COC(=O)C1=C(C)NC(C)=C(C(=O)OC(C)(C)CN(C)CCC(c2ccccc2)c2ccccc2)C1c1cccc([N+](=O)[O-])c1 (single isomer, unassigned) [Form (I), lercanidipine hydrochloride]
- mass change ([1]; at 0% RH): -0.3%
- mass change ([1]; at 95% RH): +0.15%
- solubility compared with Form (II) ([2]; 25°C and 40°C): higher than that of crystalline Form (II)
- water concentration at which the maximum solubility is reached ([2]; at both 25°C and 40°C): 20%
- AUC0-t ([3]; Dog 1, hydrochloride, 3 mg/kg): 15.41 ng/h/mL
- Cmax ([3]; Dog 1, hydrochloride, 3 mg/kg): 8.29 ng/mL
- Cmax ([3]; Dog 2 (not included in mean), hydrochloride, 3 mg/kg): 128.87 ng/mL
- AUC0-t ([3]; Dog 3, hydrochloride, 3 mg/kg): 27.544 ng/h/mL
- Cmax ([3]; Dog 3, hydrochloride, 3 mg/kg): 11.62 ng/mL
- AUC0-t ([3]; Dog 4, hydrochloride, 3 mg/kg): 46.57 ng/h/mL
- Cmax ([3]; Dog 4, hydrochloride, 3 mg/kg): 27.17 ng/mL
- AUC0-t ([3]; Dog 5, hydrochloride, 3 mg/kg): 70.39 ng/h/mL
- Cmax ([3]; Dog 5, hydrochloride, 3 mg/kg): 22.58 ng/mL
- AUC0-t ([3]; Dog 6, hydrochloride, 3 mg/kg): 28.72 ng/h/mL
- Cmax ([3]; Dog 6, hydrochloride, 3 mg/kg): 17.83 ng/mL
- Cmax ([3]; Mean (n=5, Dog 2 not included), hydrochloride, 3 mg/kg): 17.50 ng/mL
- concentration in plasma of lercanidipine (S+R) ([3]; Time 0 h, Dog 1): 0.00 ng/mL
- concentration in plasma of lercanidipine (S+R) ([3]; Time 0 h, Dog 2 (not included in mean)): 0.00 ng/mL
- concentration in plasma of lercanidipine (S+R) ([3]; Time 0 h, Dog 3): 0.00 ng/mL
- concentration in plasma of lercanidipine (S+R) ([3]; Time 0 h, Dog 4): 0.00 ng/mL
- concentration in plasma of lercanidipine (S+R) ([3]; Time 0 h, Dog 5): 0.00 ng/mL
- concentration in plasma of lercanidipine (S+R) ([3]; Time 0 h, Dog 6): 0.00 ng/mL
- concentration in plasma of lercanidipine (S+R) ([3]; Time 0 h, Mean (Dog 2 not included)): 0.00 ng/mL
- concentration in plasma of lercanidipine (S+R) ([3]; Time 0.5 h, Dog 2 (not included in mean), hydrochloride, 3 mg/kg, 30 min): 0.20 ng/mL
- concentration in plasma of lercanidipine (S+R) ([3]; Time 0.5 h, Dog 3, hydrochloride, 3 mg/kg): 0.00 ng/mL
- concentration in plasma of lercanidipine (S+R) ([3]; Time 0.5 h, Dog 4): 0.00 ng/mL
- concentration in plasma of lercanidipine (S+R) ([3]; Time 0.5 h, Dog 5): 0.00 ng/mL
- concentration in plasma of lercanidipine (S+R) ([3]; Time 0.5 h, Dog 6): 0.00 ng/mL
- concentration in plasma of lercanidipine (S+R) ([3]; Time 0.5 h, Mean (Dog 2 not included), hydrochloride, 3 mg/kg): 0.00 ng/mL
- concentration in plasma of lercanidipine (S+R) ([3]; Time 1 h, Dog 2 (not included in mean), hydrochloride, 3 mg/kg, 60 min): 0.29 ng/mL
- concentration in plasma of lercanidipine (S+R) ([3]; Time 1 h, Dog 3, hydrochloride, 3 mg/kg): 0.00 ng/mL
- concentration in plasma of lercanidipine (S+R) ([3]; Time 1 h, Dog 4, hydrochloride, 3 mg/kg): 0.00 ng/mL
- concentration in plasma of lercanidipine (S+R) ([3]; Time 1 h, Dog 5, hydrochloride, 3 mg/kg): 0.00 ng/mL
- concentration in plasma of lercanidipine (S+R) ([3]; Time 1 h, Dog 6): 0.00 ng/mL
- concentration in plasma of lercanidipine (S+R) ([3]; Time 1 h, Mean (Dog 2 not included), hydrochloride, 3 mg/kg, 60 min): 0.12 ng/mL
- concentration in plasma of lercanidipine (S+R) ([3]; Time 1.5 h, Dog 1, hydrochloride, 3 mg/kg, 90 min): 1.83 ng/mL
- concentration in plasma of lercanidipine (S+R) ([3]; Time 1.5 h, Dog 2 (not included in mean), hydrochloride, 3 mg/kg, 90 min): 1.06 ng/mL
- concentration in plasma of lercanidipine (S+R) ([3]; Time 1.5 h, Dog 3, hydrochloride, 3 mg/kg, 90 min): 0.32 ng/mL
- concentration in plasma of lercanidipine (S+R) ([3]; Time 1.5 h, Dog 4, hydrochloride, 3 mg/kg): 0.00 ng/mL
- concentration in plasma of lercanidipine (S+R) ([3]; Time 1.5 h, Dog 5, hydrochloride, 3 mg/kg, 90 min): 1.33 ng/mL
- concentration in plasma of lercanidipine (S+R) ([3]; Time 1.5 h, Dog 6, hydrochloride, 3 mg/kg): 0.00 ng/mL
- concentration in plasma of lercanidipine (S+R) ([3]; Time 1.5 h, Mean (Dog 2 not included), hydrochloride, 3 mg/kg, 90 min): 0.70 ng/mL
- concentration in plasma of lercanidipine (S+R) ([3]; Time 2 h, Dog 1, hydrochloride, 3 mg/kg, 120 min): 8.29 ng/mL
- concentration in plasma of lercanidipine (S+R) ([3]; Time 2 h, Dog 2 (not included in mean), hydrochloride, 3 mg/kg, 120 min): 8.94 ng/mL
- concentration in plasma of lercanidipine (S+R) ([3]; Time 2 h, Dog 3, hydrochloride, 3 mg/kg, 120 min): 0.94 ng/mL
- concentration in plasma of lercanidipine (S+R) ([3]; Time 2 h, Dog 4, hydrochloride, 3 mg/kg, 120 min): 0.35 ng/mL
- concentration in plasma of lercanidipine (S+R) ([3]; Time 2 h, Dog 5, hydrochloride, 3 mg/kg, 120 min): 17.11 ng/mL
- concentration in plasma of lercanidipine (S+R) ([3]; Time 2 h, Dog 6, hydrochloride, 3 mg/kg, 120 min): 0.28 ng/mL
- concentration in plasma of lercanidipine (S+R) ([3]; Time 2 h, Mean (Dog 2 not included), hydrochloride, 3 mg/kg, 120 min): 5.39 ng/mL
- concentration in plasma of lercanidipine (S+R) ([3]; Time 3 h, Dog 1, hydrochloride, 3 mg/kg, 180 min): 4.44 ng/mL
- concentration in plasma of lercanidipine (S+R) ([3]; Time 3 h, Dog 2 (not included in mean), hydrochloride, 3 mg/kg, 180 min): 36.39 ng/mL
- concentration in plasma of lercanidipine (S+R) ([3]; Time 3 h, Dog 3, hydrochloride, 3 mg/kg, 180 min): 0.92 ng/mL
- concentration in plasma of lercanidipine (S+R) ([3]; Time 3 h, Dog 4, hydrochloride, 3 mg/kg, 180 min): 27.17 ng/mL
- concentration in plasma of lercanidipine (S+R) ([3]; Time 3 h, Dog 5, hydrochloride, 3 mg/kg, 180 min): 22.58 ng/mL
- concentration in plasma of lercanidipine (S+R) ([3]; Time 3 h, Dog 6, hydrochloride, 3 mg/kg, 180 min): 1.29 ng/mL
- concentration in plasma of lercanidipine (S+R) ([3]; Time 3 h, Mean (Dog 2 not included), hydrochloride, 3 mg/kg, 180 min): 11.28 ng/mL
- concentration in plasma of lercanidipine (S+R) ([3]; Time 4 h, Dog 1, hydrochloride, 3 mg/kg, 240 min): 1.81 ng/mL
- concentration in plasma of lercanidipine (S+R) ([3]; Time 4 h, Dog 2 (not included in mean), hydrochloride, 3 mg/kg, 240 min): 128.87 ng/mL
- concentration in plasma of lercanidipine (S+R) ([3]; Time 4 h, Dog 3, hydrochloride, 3 mg/kg, 240 min): 9.42 ng/mL
- concentration in plasma of lercanidipine (S+R) ([3]; Time 4 h, Dog 4, hydrochloride, 3 mg/kg, 240 min): 11.07 ng/mL
- concentration in plasma of lercanidipine (S+R) ([3]; Time 4 h, Dog 5, hydrochloride, 3 mg/kg, 240 min): 16.39 ng/mL
- concentration in plasma of lercanidipine (S+R) ([3]; Time 4 h, Dog 6, hydrochloride, 3 mg/kg, 240 min): 6.26 ng/mL
- concentration in plasma of lercanidipine (S+R) ([3]; Time 4 h, Mean (Dog 2 not included), hydrochloride, 3 mg/kg, 240 min): 8.99 ng/mL
- concentration in plasma of lercanidipine (S+R) ([3]; Time 6 h, Dog 1, hydrochloride, 3 mg/kg, 360 min): 0.80 ng/mL
- concentration in plasma of lercanidipine (S+R) ([3]; Time 6 h, Dog 2 (not included in mean), hydrochloride, 3 mg/kg, 360 min): 26.65 ng/mL
- concentration in plasma of lercanidipine (S+R) ([3]; Time 6 h, Dog 3, hydrochloride, 3 mg/kg, 360 min): 11.62 ng/mL
- concentration in plasma of lercanidipine (S+R) ([3]; Time 6 h, Dog 4, hydrochloride, 3 mg/kg, 360 min): 2.53 ng/mL
- Tmax ([3]; dog, plasma, po, 3 mg/kg, Dog 1, read-out: Tmax): 2 h
- Tmax ([3]; dog, plasma, po, 3 mg/kg, Dog 4, read-out: Tmax): 3 h
- Tmax ([3]; dog, plasma, po, 3 mg/kg, Dog 5, read-out: Tmax): 3 h
- Tmax ([3]; dog, plasma, po, 3 mg/kg, Dog 6, read-out: Tmax): 6 h
- Tmax ([3]; dog, plasma, po, 3 mg/kg, Mean (n=5, Dog 2 not included), read-out: Tmax): 4 h
- concentration at 0.5 h ([3]; dog, plasma, po, 3 mg/kg, Time 0.5 h, Dog 1, read-out: concentration in plasma of lercanidipine (S+R)): 0.1 ng/mL
- concentration at 1 h ([3]; dog, plasma, po, 3 mg/kg, Time 1 h, Dog 1, read-out: concentration in plasma of lercanidipine (S+R)): 0.59 ng/mL
- concentration at 6 h ([3]; dog, plasma, po, 3 mg/kg, Time 6 h (last sampling time), Mean (Dog 2 not included), read-out: concentration in plasma of lercanidipine (S+R)): 8.5 ± 6.5 ng/mL
- concentration at 6 h ([3]; dog, plasma, po, 3 mg/kg, Time 6 h, Dog 5, read-out: concentration in plasma of lercanidipine (S+R)): 9.73 ng/mL
- concentration at 6 h ([3]; dog, plasma, po, 3 mg/kg, Time 6 h, Dog 6, read-out: concentration in plasma of lercanidipine (S+R)): 17.8 ng/mL
- tmax compared with Form (II) [4]: shorter than that of Form (II)
- AUC(0-t) at 24 h ([4]; human, plasma, po, 10 mg, single dose, geom. least square mean): 8.82 ng·h/mL
- Cmax ([4]; human, plasma, po, 10 mg, single dose, geom. least square mean, read-out: Cmax): 3.18 ng/mL
- Tmax ([4]; human, plasma, po, 10 mg, single dose, median, read-out: tmax): 1.5 h
